Measurements reported in paper PMC7696940, “Effects of Rationally Designed Physico-Chemical Variants of the Peptide PuroA on Biocidal Activity towards Bacterial and Mammalian Cells” (International Journal of Molecular Sciences, 2020).
Converted amounts (≈) assume the structure as drawn. Where no end group is shown, it is not given here.

Tests used:
S. aureus ATCC25923 = assay type: cell-based, Staphylococcus aureus; conditions: MHB; for MIC S. aureus, No NaCl: 0 mM NaCl; for MIC S. aureus, No NaCl / MIC S. aureus, With 50mM NaCl / MIC S. aureus, With 100mM NaCl / MIC S. aureus, With 150mM NaCl: triplicate, mode; for MIC S. aureus ATCC25923: 37 °C overnight, A595, mode of three independent experiments
Protocol: (§1) The activity of peptides was determined against the Gram-positive Staphylococcus aureus (ATCC 25923), and the Gram-negative Escherichia coli (ATCC 25922) and Pseudomonas aeruginosa (ATCC 9027) bacteria. Selected peptides were also tested against two clinical isolates of methicillin-resistant Staphylococcus aureus (MRSA), M173525 and M180920, kindly provided by Dr P. B. Ward (Microbiology Department, Austin and Repatriation Medical Centre, Heidelberg West, Victoria, Australia). The Minimum inhibitory concentration (MIC) of peptides was determined by the microtitre broth dilution method, as described in Phillips et al.. Briefly, bacteria were grown in Mueller-Hinton Broth (MHB) at 37 °C overnight with shaking (200 rpm). The cultures were adjusted to 0.5 McFarland turbidity standard (approximately 1 × 10^8 colony forming units (CFU)/mL), then diluted 1:100 in MHB (1 × 10^6 CFU/mL). A total of 75 μL of these suspensions were mixed with 25 μL of peptide solutions (final concentrations 250 to 0.5 μg/mL) and the microtitre plates incubated overnight at 37 °C. Positive growth controls (inoculum and MHB, with no peptide) and sterility controls (0.01% glacial acetic) were also included. Post-incubations, the absorbance of cultures at 595 nm was measured using a microplate reader (POLARstar Omega, Germany). […] To evaluate salt sensitivity of peptides up to physiological levels (150 mM NaCl), overnight cultures of S. aureus and E. coli adjusted to 0.5 McFarland turbidity standard were diluted 1:100 in MHB containing 0, 50, 100 or 150 mM NaCl, and the MICs of peptides determined as above. All tests were conducted in triplicate. The results are shown as the mode of values obtained.

P. aeruginosa ATCC9027 = assay type: cell-based, Pseudomonas aeruginosa; conditions: MHB, 37 °C overnight, A595; mode of three independent experiments
Protocol: as §1

E. coli and S. aureus = assay: Salt tolerance (MICs under 0-150 mM NaCl, summary); assay type: cell-based, Escherichia coli; Staphylococcus aureus; set-up: key: Up to 50 mM: no effects on antibacterial activity up to 50 mM NaCl but increase in the MICs for E. coli and S. aureus at 100 mM NaCl; Intolerant: not resistant to salt effects even at 50 mM NaCl; Up to 150 mM: no effects on antibacterial activity up to 150 mM NaCl; conditions: MICs for E. coli and S. aureus in MHB with 0, 50, 100 or 150 mM NaCl
Protocol: as §1

[1] = tested on: porcine trypsin and proteinase K; assay: Proteases stability assay; assay type: in vitro ADME, porcine; Tritirachium album; conditions: 1000 µg peptide with 50 µg protease (20:1 w/w), porcine trypsin or proteinase K, PBS pH 7.4, 37 °C, 3 h; read-out activity of supernatant on E. coli and S. aureus; triplicate
Protocol: The effect of two well-studied proteases, porcine trypsin and proteinase K from Tritirachium album, on the activity of peptides was investigated as per Carmona et al.. Briefly, 1000 µg of a peptide was incubated with 50 µg of a protease (20:1 w/w) at 37 °C for 3 h in phosphate buffered saline PBS (pH 7.4). The enzyme activity was then terminated by heating (70 °C, 5 min) and the samples centrifuged at 12,000× g. The activity of the supernatant on E. coli and S. aureus was tested as above, in triplicate.

[2] = tested on: pBlueScript SK+ plasmid DNA; assay: In vitro DNA-binding assay (gel retardation); conditions: 100 ng pBlueScript SK+, peptide 8-500 µg/mL, 1 h room temperature, 1% agarose
Protocol: The ability of peptides to bind to purified DNA (indicative of in vivo DNA binding potential) was tested by the modified gel retardation assay developed by Alfred et al.. The DNA of pBlueScript SK+ (100 ng) was incubated with peptides (to final concentrations of 8, 16, 32, 64, 125, 250 or 500 µg/mL) in 15 µL volumes made with sterile MilliQ water, the held at room temperature for 1h. Loading dye was added to each sample and the samples electrophoresed on 1% agarose gels. The gels were then immersed in ethidium bromide ([…]) then visualized and imaged

| Compound | MIC S. aureus, No NaCl (S. aureus ATCC25923) | MIC S. aureus, With 50mM NaCl (S. aureus ATCC25923) | MIC S. aureus, With 100mM NaCl (S. aureus ATCC25923) | MIC S. aureus, With 150mM NaCl (S. aureus ATCC25923) | MIC P. aeruginosa ATCC9027 (P. aeruginosa ATCC9027) | Salt Tolerance (E. coli and S. aureus) | Protease Stability [1] | MIC S. aureus ATCC25923 (S. aureus ATCC25923) | Binding to DNA in vitro (concentration inhibiting plasmid migration) [2] |
| --- | --- | --- | --- | --- | --- | --- | --- | --- | --- |
| RKRWWRWWKWWKR-NH2 [Peptide P1] | 16 µg/mL | 16 µg/mL | 16 µg/mL | 16 µg/mL | 16 µg/mL | Up to 150 mM | Unstable | – | – |
| CC(C)[C@H](NC(=O)[C@@H]1CCCN1C(=O)[C@@H](N)Cc1ccccc1)C(=O)N[C@H](C(=O)N[C@@H](Cc1c[nH]c2ccccc12)C(=O)N[C@@H](CCCNC(=N)N)C(=O)N[C@@H](Cc1c[nH]c2ccccc12)C(=O)N[C@@H](Cc1c[nH]c2ccccc12)C(=O)N[C@@H](CCCCN)C(=O)N[C@@H](Cc1c[nH]c2ccccc12)C(=O)N[C@@H](Cc1c[nH]c2ccccc12)C(=O)N[C@@H](CCCCN)C(=O)NCC(N)=O)[C@@H](C)O [PuroA] | 16 µg/mL (≈ 8.59 µM) | 16 µg/mL (≈ 8.59 µM) | 32 µg/mL (≈ 17.2 µM) | 64 µg/mL (≈ 34.4 µM) | 64 µg/mL (≈ 34.4 µM) | – | Unstable | 16 µg/mL (≈ 8.59 µM) | – |
| WRWWKWW-NH2 [Peptide W7] | 8 µg/mL | 8 µg/mL | 8 µg/mL | 8 µg/mL | 32 µg/mL | Up to 150 mM | Unstable | 8 µg/mL | ≥ 16 µg/mL |
| WWRWWKWW-NH2 [WW] | 8 µg/mL | 8 µg/mL | 8 µg/mL | 8 µg/mL | 32 µg/mL | – | Unstable | 8 µg/mL | – |
